In patent US20220305178A1, “CANCER TREATMENT BY IN VITRO AMINO ACID DEPRIVATION” (YUANHENG BIOMEDICAL CO., LTD., priority 2021, published 2022):

Columns and labels:
[1] = Modified peritoneal dialysis of peritoneal fluid (RPMI 1640 diluent) with Asparaginase in the dialysate (Example 3); assay type: biochemical
Method: RPMI 1640 Medium was ten times diluted to obtain 1 L of RPMI 1640 diluent with Dianeal PD-2 (Peritoneal Dialysis Solution) and to serve as a peritoneal fluid for the control group 2. 1 L and 2 L of the same RPMI 1640 diluent was prepared for the Experimental group 2 and Experimental group 3, respectively.
The flow rate or circulation speed of the dialysate was 250 ml/min. Before the peritoneal fluid (RPMI 1640 diluent) entered the dialysis machine, RPMI 1640 diluent was also used to clean the circulation pipeline of the dialysis machine, to achieve the required equilibrium of the artificial kidney, and to get rid of all bubbles in the artificial kidney. Besides, the artificial kidneys of the control group 2 and the experimental group 2 were NV-15U with the effective membrane area of 1.5 m^2; and the artificial kidney of the experimental group 3 was NV-21U with the effective membrane area of 2.1 m^2.
The dialysate is DIANEAL PD-2 Peritoneal Dialysis Solution with 1.5% Dextrose (Baxter). The target amino acid is Asparagine (Asn), and the concentration of Asparaginase in the dialysate is 1 K.U./ml in the Experimental groups 2 & 3. No Asparaginase was added in the control group 2.
The dialysis temperature was set to be 37° C. The peritoneal fluid (RPMI 1640 diluent) was first pumped into slot A for temporary storage and then entered the artificial kidney. After peritoneal fluid (RPMI 1640 diluent) left the artificial kidney, peritoneal fluid (RPMI 1640 diluent) further entered slot B for temporary storage, and then left the dialysis machine, e.g. the peritoneal fluid (RPMI 1640 diluent) was pumped back to the peritoneal cavity of the patient. The concentrations of amino acids in the peritoneal fluid before and after dialysis were studied by using Amino Acid Analysis Systems (Waters UPLC® Amino Acid Analysis (AAA) Solution) and the result was shown in Table 3 to Table 5.

[2] = Modified hemodialysis of simulated blood with Asparaginase in the dialysate, amino acids by UPLC; assay type: biochemical, pig; settings: for concentration of Asn of the simulated blood / concentration of Arg of the simulated blood / concentration of Gln of the simulated blood / concentration of Met of the simulated blood / concentration of Ser of the simulated blood: Experimental group 1, Asparaginase 1 K.U./ml in dialysate; for concentration of Arg of the simulated blood / concentration of Gln of the simulated blood / concentration of Met of the simulated blood / concentration of Ser of the simulated blood: non-target amino acid
Method: 900 ml of pig's blood and 100 ml of Gibco Roswell Park Memorial Institute (RPMI) 1640 Medium (RPMI 1640 Medium) were mixed to obtain a diluted pig's blood. The diluted pig's blood was further added with 1.8 mg/ml EDTA-K^2+, 0.05% sodium azide; and 132 μl of Heparin with the concentration of 5000 U/ml to obtain a simulated blood, wherein the concentration of EDTA-K^2+ of the simulated blood was […].
The dialysis machine is Toray TR-321. The dialysate for extracorporeal circulation was triple the amount of the simulated blood and was 3000 ml, and the flow rate of dialysate was 500 ml/min. Before the simulated blood entered the dialysis machine, 1X PBS was used to clean the circulation pipeline of the dialysis machine, to achieve the required balance of the artificial kidney (Polyflux 17L), and to get rid of all bubbles in the artificial kidney, and the circulation speed was 250 ml/min. Besides, the effective membrane area of the artificial kidney is 1.7 m^2.
The dialysate consisted of Buffer A (hemodialysis concentrate No. 16, purchased from Taiwan Biotech Co., LTD), Buffer B (Sodium Bicarbonate Concentrate 8.4%, purchased from Fressenius Medical Care Ag, 61348 Bad Homburg, Germany) and R.O. water, wherein the volume ratio of Buffer A, Buffer B and R.O. water is 1:1.225:32.775.
The target amino acid is Asparagine (Asn), and the rest are non-target amino acids. The 3000 ml dialysate was added with 3 ml of Asparaginase with the concentration of 1000 K.U./ml (LEUNASE®) in the Experimental group 1, so the concentration of Asparaginase in the dialysate is 1 K.U./ml. No Asparaginase was added in the Control group 1.
The conductivity of the dialysate was adjusted to about 14 mS/cm. The dialysis temperature was set to be 37° C. When the pressure of the circulation pipeline, the temperature and the conductivity of the dialysate reached the desirable value and were stable, a green light signaled to indicate that hemodialysis was ready. The simulated blood was pumped into the circulation pipeline and entered the artificial kidney. Besides, the simulated blood was further added with Heparin with the concentration of 5000 U/ml at the flow rate of 4.4 ml/hour before the simulated blood entered the artificial kidney. The concentrations of amino acids in the simulated blood before and after dialysis were detected by ultra performance liquid chromatography (UPLC) and the results were shown in Table 1 and Table 2.

In the case of Asparaginase, the “concentration of Asn of the peritoneal fluid” value ([1]; experimental group 2, Asparaginase 1 K.U./ml in dialysate, NV-15U 1.5 m^2, dialysis time 0 min) is reported as 27.284 µM, the “concentration of Asn of the peritoneal fluid” value ([1]; experimental group 2, Asparaginase 1 K.U./ml in dialysate, NV-15U 1.5 m^2, dialysis time 3 min) is reported as 23.254 µM and the “concentration of Asn of the peritoneal fluid” value ([1]; experimental group 2, Asparaginase 1 K.U./ml in dialysate, NV-15U 1.5 m^2, dialysis time 5 min) is reported as 9.088 µM. The “concentration of Arg of the peritoneal fluid” value ([1]; experimental group 2, Asparaginase 1 K.U./ml in dialysate, NV-15U 1.5 m^2, non-target amino acid, dialysis time 0 min) was 102.6 µM, the “concentration of Arg of the peritoneal fluid” value ([1]; experimental group 2, Asparaginase 1 K.U./ml in dialysate, NV-15U 1.5 m^2, non-target amino acid, dialysis time 3 min) was 90.0 µM and the “concentration of Arg of the peritoneal fluid” value ([1]; experimental group 2, Asparaginase 1 K.U./ml in dialysate, NV-15U 1.5 m^2, non-target amino acid, dialysis time 5 min) was 70.5 µM. For the same substance, the “dialysis time within which Arginine (Arg) is lower to 50% of the original concentration” value ([1]; experimental group 2, NV-15U 1.5 m^2) was ≤ 10 min, the “concentration of Asparagine (Asn) relative to original” value ([1]; experimental group 2, within 5 mins of dialysis) was “less than 50%” and the “concentration of Asn of the peritoneal fluid” value ([1]; experimental group 3, Asparaginase 1 K.U./ml in dialysate, NV-21U 2.1 m^2, dialysis time 0 min) was 30.674 µM. For the same substance, the “concentration of Arg of the peritoneal fluid” value ([1]; experimental group 3, Asparaginase 1 K.U./ml in dialysate, NV-21U 2.1 m^2, non-target amino acid, dialysis time 0 min) was 83.86 µM, the “concentration of Arg of the peritoneal fluid” value ([1]; experimental group 3, Asparaginase 1 K.U./ml in dialysate, NV-21U 2.1 m^2, non-target amino acid, dialysis time 3 min) was 70.12 µM and the “concentration of Arg of the peritoneal fluid” value ([1]; experimental group 3, Asparaginase 1 K.U./ml in dialysate, NV-21U 2.1 m^2, non-target amino acid, dialysis time 5 min) was 37.31 µM. For the same substance, the “concentration of Arg of the peritoneal fluid” value ([1]; experimental group 3, Asparaginase 1 K.U./ml in dialysate, NV-21U 2.1 m^2, non-target amino acid, dialysis time 10 min) was 19.99 µM, the “dialysis time within which Arginine (Arg) is lower to 50% of the original concentration” value ([1]; experimental group 3, NV-21U 2.1 m^2) was ≤ 5 min and the “dialysis time within which Asparagine (Asn) is undetectable” value ([1]; experimental group 3, NV-21U 2.1 m^2, peritoneal fluid, LOD of Asparagine 5 μM) was ≤ 3 min. The “concentration of Asn of the simulated blood” value ([2]; Polyflux 17L 1.7 m^2, dialysis time 0 min) was 41.8 µM, the “concentration of Asn of the simulated blood” value ([2]; Polyflux 17L 1.7 m^2, dialysis time 3 min) was 32.3 µM and the “concentration of Asn of the simulated blood” value ([2]; Polyflux 17L 1.7 m^2, dialysis time 5 min) was 24.2 µM. The “concentration of Arg of the simulated blood” value ([2]; dialysis time 0 min) was 212.4 µM, the “concentration of Gln of the simulated blood” value ([2]; dialysis time 0 min) was 381.8 µM and the “concentration of Met of the simulated blood” value ([2]; dialysis time 0 min) was 38.5 µM. For the same substance, the “concentration of Ser of the simulated blood” value ([2]; dialysis time 0 min) was 159.8 µM, the “concentration of Arg of the simulated blood” value ([2]; dialysis time 3 min) was 83.0 µM and the “concentration of Gln of the simulated blood” value ([2]; dialysis time 3 min) was 147.5 µM. For the same substance, the “concentration of Met of the simulated blood” value ([2]; dialysis time 3 min) was 16.0 µM, the “concentration of Ser of the simulated blood” value ([2]; dialysis time 3 min) was 67.7 µM and the “concentration of Arg of the simulated blood” value ([2]; dialysis time 5 min) was 74.6 µM. For the same substance, the “concentration of Gln of the simulated blood” value ([2]; dialysis time 5 min) was 131.5 µM, the “concentration of Met of the simulated blood” value ([2]; dialysis time 5 min) was 14.4 µM and the “concentration of Ser of the simulated blood” value ([2]; dialysis time 5 min) was 63.2 µM. The “concentration of Arg of the simulated blood” value ([2]; dialysis time 10 min) was 16.9 µM, the “concentration of Gln of the simulated blood” value ([2]; dialysis time 10 min) was 24.2 µM and the “concentration of Met of the simulated blood” value ([2]; dialysis time 10 min) was 3.7 µM. The “concentration of Ser of the simulated blood” value ([2]; dialysis time 10 min) was 17.5 µM, the “concentration of Arg of the simulated blood” value ([2]; dialysis time 20 min) was 14.7 µM and the “concentration of Gln of the simulated blood” value ([2]; dialysis time 20 min) was 18.2 µM. For the same substance, the “concentration of Met of the simulated blood” value ([2]; dialysis time 20 min) was 3.8 µM, the “concentration of Ser of the simulated blood” value ([2]; dialysis time 20 min) was 20.0 µM and the “concentration of Arg of the simulated blood” value ([2]; dialysis time 30 min) was 14.3 µM. For the same substance, the “concentration of Gln of the simulated blood” value ([2]; dialysis time 30 min) was 18.3 µM, the “concentration of Met of the simulated blood” value ([2]; dialysis time 30 min) was 3.5 µM and the “concentration of Ser of the simulated blood” value ([2]; dialysis time 30 min) was 17.8 µM. For the same substance, the “dialysis time within which Asparagine (Asn) is undetectable” value ([2]; Experimental group 1, simulated blood, LOD of Asparagine 5 μM) was ≤ 10 min.
